{"source": "paper PMC10778758", "about": "“Dithioethanol (DTE)-Conjugated Deoxyribose Cyclic Dinucleotide Prodrugs (DTE-dCDNs) as STING Agonist” (International Journal of Molecular Sciences, 2023)", "key": {"THP-1 cells [1]": {"system": "THP-1 cells", "test": "Western blot of STING/TBK1/IRF3 phosphorylation in THP-1 cells", "format": "cell-based", "settings": "4 h", "experimental": "Western blotting. THP-1 cells (8 × 10^5 cells/well) were seeded into a 6-well plate and treated with prodrug 9, 2′,3′-cGAMP, 3′,3′-c-di-dAMP, and ADU-S100 for 4 h. The total proteins from the cells were extracted via cold RIPA buffer supplemented with protease inhibitors. Cell lysates were harvested via 1 × SDS-PAGE sample loading buffer (Cat. code: P0015, Beyotime, Shanghai, China), boiled at 100 °C for 10 min. Cell lysates were run on 10% SDS-PAGE gels and transferred onto NC membranes. The membranes were blocked with 5% BSA for 1 h and incubated with primary antibodies against STING, phospho-STING (Ser366), TBK1, phospho-TBK1 (Ser172), IRF3, phospho-IRF3 (Ser386), or β-actin overnight at 4 °C. Horseradish peroxidase-conjugated secondary antibodies were used as secondary antibodies. Finally, the membrane was detected using enhanced chemiluminescence for imaging.\nFigure 9 Prodrug 9 activated the STING signalling pathway through stimulating the phosphorylation of STING, TBK1, and IRF3. Prodrug 9 (10 μM), 2′,3′-cGAMP (100 μM), 3′,3′-c-di-dAMP (100 μM), and ADU-S100 (10 μM) were used to treat THP-1 cells for 4 h, and the levels of total STING, phospho-STING, total TBK1, phospho-TBK1, total IRF3, phospho-IRF3, and β-actin were detected via Western blotting. The raw images of western blots were also placed in pages S16–S22 in Supplementary Materials.\nFigure S4. Relative quantification of phospho-STING, phospho-TBK1, phospho-IRF3. Prodrug 9 (10\nμM), 2′,3′-cGAMP (100 μM), 3′,3′-c-di-dAMP (100 μM) and ADU-S100 (10 μM) were used to treat\nTHP-1 cells for 4 h, and the levels of total STING, phospho-STING, total TBK1, phospho-TBK1, total\nIRF3, phospho-IRF3, and β-actin were assessed by western blotting. […]"}, "THP-1 cells [2]": {"system": "THP-1 cells", "settings": "human, 10 μM", "description": "Uptake of DTE-dCDN Prodrug. THP-1 cells were seeded at a concentration of 5 × 10^6 cells/mL into a 12-well plate. After 16 h of incubation at 37 °C in a 5% CO2 atmosphere, the compounds were added to cell cultures and the cells were collected at time points of 1 h, 2 h, 4 h, 6 h, 8 h, 12 h, and 24 h by centrifugation for 1 min at 1000× g. The media was removed completely, and the cells were washed twice with 800 μL of ice-cold PBS before being lysed with 400 μL ice-cold 70% methanol. Lysates were incubated overnight at −20 °C and then centrifuged for 20 min at 13,000× g to remove cellular debris. The supernatant was analyzed via LC/MS/MS (Agilent 1290 Infinity II/6470A)\n(a) The intracellular concentration of the prodrug 9 in THP-1 cells. (b) The intracellular concentration of the parent dCDN (3′,3′-c-di-dAMP) in THP-1 cells. THP-1 cells were treated with 10 μM prodrug 9 or 100 μM parent dCDN (3′,3′-c-di-dAMP) for the indicated period of time (1, 2, 4, 6, 8, 12, 24 h), and the intracellular concentration of the metabolites in cellular extracts was determined with liquid chromatograph MS/MS analysis."}, "THP-1 cells [3]": {"system": "THP-1 cells", "test": "ELISA of IFN-β protein levels in THP-1 culture supernatants", "format": "cell-based, human", "settings": "4 h", "experimental": "Enzyme-Linked Immunosorbent Assay (ELISA). THP-1 cells were incubated with the compounds for 4 h. Cell culture supernatants were then analyzed via ELISA for human IFN-β levels (ABclonal, Woburn, MA, USA, catalogue no. RK01630) according to the manufacturer’s instructions. […]\nexpression levels of IFN-β were assessed by real-time quantitative PCR (qPCR) under the treatment of prodrug 9 (10 μM), 3′,3′-c-di-dAMP (100 μM), 2′,3′-cGAMP (100 μM) and ADU-S100 (10 μM) for 4 h.\nFigure S3. Prodrug 9 stimulated the production of IFN-β in THP-1 cells. Under the treatment of prodrug […]\nlevels of IFN-β were assessed by an enzyme-linked immunosorbent assay (ELISA).\n(also on this page, place not known: t reatment -S100 9 3',3'-c-di-dAMPADU-S100 IFN-β/β-actin IFN-β in Culture Medium (pg/ml)) […]"}, "HEK293T cells": {"system": "HEK293T cells", "test": "CCK8 cell viability, HEK293T cells", "format": "cell-based", "settings": "10 μM, 24 h", "experimental": "Cell viability of THP-1 and HEK293T cells. A total of 5 × 10^3 HEK293T cells or THP-1 cells were seeded in 96-well plates. […] Cell counting kit-8 (CCK8) (US EVERBRIGHT, Newport Beach, CA, USA, c6005) was then used to quantitatively assess the cell viability through the OD value at 450 nm. The HEK293T cell line was obtained from American Type Culture Collection (ATCC).\nFigure 8 Cell viability of THP-1 and HEK293T cells stimulated by prodrug 9 and 2′,3′-cGAMP. (a) A total of 5 × 10^3 THP-1 cells or (b) HEK293T cells were seeded in 96-well plates. Cells were stimulated with prodrug 9 (10 μM), 3′,3′-c-di-dAMP (100 μM), and 2′,3′-cGAMP (100 μM) for 24 h. Then, cell counting kit-8 (CCK8) (US EVERBRIGHT, c6005) was used to quantitatively assess cell viability through the OD value at 450 nm. Data are presented as mean ± SD, n = 3."}, "[4]": {"test": "In vitro serum stability assay in 20% fetal bovine serum", "format": "in vitro ADME", "settings": "bovine, 20% fetal bovine serum, pH 7.4, 20% FBS, 37 °C, read-out: T1/2 (half-life period) (converted)", "experimental": "In vitro serum stability assay. Each compound (100 μM) was incubated at 37 °C in the reaction buffer including 20% fetal bovine serum (FBS, GIBCO, Thermo Fisher Scientific, Waltham, MA, USA), 10 mM PBS (pH 7.4), and 1 mM MgCl2. At various times, aliquots of the reaction mixture were collected and stopped by adding 50 μL MeCN and diluted with 50 μL water. The reaction mixture was then centrifuged at 10,000 rpm for 5 min, leaving 100 μL supernatant for the HPLC assay. An amount of 10 μL of each aliquot was injected directly into HPLC (Agilent 1260 Infinity HPLC equipped with a UV detector; column Agilent ZORABX SB-C18 5 μm [4.6 × 150 mm; detection at 254 nm; column temperature 25 °C] for analysis. Amounts of 10 mM TEAA buffer (solvent A) and MeCN (solvent B) were used as the mobile phase with a flow rate of 1 mL/min. The gradient was set as the following: 0–2 min: 98% A/2% B; 2–6 min: 98% A/2% B to 100% B; 6–10 min: 100% B; 10–13 min: 100% B to 98% A/2% B; 13–15 min: 98% A/2% B. The % remaining of the test compounds after incubation in the serum was then calculated.\nFigure 4 Parent dCDN of DTE-dCDN prodrug 9 retained a high serum stability. The serum stability analysis of (a) prodrug 9, (b) 3′,3′-c-di-dAMP, (c) 2′,3′-cGAMP and (d) ADU-S100 were determined in 20% FBS. Each compound (100 μM) was incubated in 20% FBS at 37 °C. At various times (0, 2, 4, 8, 12, 24, 48, 72 h), aliquots of the reaction mixture were analyzed with HPLC at 254 nm. The % remaining of test compounds after incubation in serum was calculated."}, "[5]": {"settings": "THP-1, prodrug 9 10 μM vs 2′,3′-cGAMP 100 μM"}, "[6]": {"settings": "THP-1, prodrug 9 10 μM vs 3′,3′-c-di-dAMP 100 μM"}, "[7]": {"settings": "THP-1, prodrug 9 10 μM vs ADU-S100 10 μM"}}}
{"smiles": "Nc1ncnc2c1ncn2C1CC2OP(=O)(OCCSSc3ccccn3)OCC3OC(n4cnc5c(N)ncnc54)CC3OP(=O)(OCCSSc3ccccn3)OCC2O1", "note": "(stereo not drawn) [prodrug 9]", "values": [{"measurement": "relative expression of phospho-IRF3, fold compared to 2′,3′-cGAMP", "setting": "THP-1 cells [1]; [5]", "result": 19.8, "unit": "fold"}, {"measurement": "relative expression of phospho-STING, fold compared to 2′,3′-cGAMP", "setting": "THP-1 cells [1]; [5]", "result": 20.8, "unit": "fold"}, {"measurement": "relative expression of phospho-TBK1, fold compared to 2′,3′-cGAMP", "setting": "THP-1 cells [1]; [5]", "result": 6.9, "unit": "fold"}, {"measurement": "relative expression of phospho-IRF3, fold compared to 3′,3′-c-di-dAMP", "setting": "THP-1 cells [1]; [6]", "result": 6.5, "unit": "fold"}, {"measurement": "relative expression of phospho-STING, fold compared to 3′,3′-c-di-dAMP", "setting": "THP-1 cells [1]; [6]", "result": 5.5, "unit": "fold"}, {"measurement": "relative expression of phospho-TBK1, fold compared to 3′,3′-c-di-dAMP", "setting": "THP-1 cells [1]; [6]", "result": 3.6, "unit": "fold"}, {"measurement": "relative expression of phospho-IRF3, fold compared to ADU-S100", "setting": "THP-1 cells [1]; [7]", "result": 1.8, "unit": "fold"}, {"measurement": "relative expression of phospho-STING, fold compared to ADU-S100", "setting": "THP-1 cells [1]; [7]", "result": 1.6, "unit": "fold"}, {"measurement": "relative expression of phospho-TBK1, fold compared to ADU-S100", "setting": "THP-1 cells [1]; [7]", "result": 1.3, "unit": "fold"}, {"measurement": "time at which intracellular levels of prodrug 9 peaked", "setting": "THP-1 cells [2]", "result": 2, "unit": "h"}, {"measurement": "IFN-β protein level, fold compared to 2′,3′-cGAMP", "setting": "THP-1 cells [3]; [5]", "result": "approximately 66 fold"}, {"measurement": "IFN-β protein level, fold compared to 3′,3′-c-di-dAMP", "setting": "THP-1 cells [3]; [6]", "result": "~4.3", "unit": "fold"}, {"measurement": "IFN-β protein level, fold compared to ADU-S100", "setting": "THP-1 cells [3]; [7]", "result": "~5.6", "unit": "fold"}, {"measurement": "cell viability (CCK8), HEK293T cells", "setting": "HEK293T cells", "result": "no significant influence on the growth"}, {"measurement": "half-life at 100 μM", "setting": "[4]", "result": 28, "unit": "h"}]}
